Measurements: paper PMC4775281 (Structure (London, England : 1993), 2016)

Target: catalytic subunit of the cAMP-dependent protein kinase A (PKA-C) (Mus musculus, UniProt P05132)
Experiment: isothermal titration calorimetry
Type: binding

- Kd: ~250 µM
Structure (SMILES): Nc1ncnc2c1ncn2[C@@H]1O[C@H](COP(=O)(O)O)[C@@H](O)[C@H]1O [AMP]
